A word on the EC50: it is the concentration needed to bring the measured effect to its halfway point. Broadly, the IC50 is the concentration that gives 50% inhibition. For orientation: Ki means a measure of affinity in units of concentration, obtained from inhibition or displacement.

Where two headings read alike, the source gives them in different places.

The text below walks through data of patent US20140378408A1, “NUCLEOSIDE 5'-PHOSPHOROTHIOATE ANALOGUES AND USES THEREOF” (BAR-ILAN UNIVERSITY, an Israeli University, priority 2012, published 2014).

Data set [1] addresses T1, human P2Y11-R (Homo sapiens, UniProt Q96G91).
T1 construct: expressed in transfected cells; host or cells: 1321N1 astrocytoma cells
T1 sequence (Q96G91 1-374): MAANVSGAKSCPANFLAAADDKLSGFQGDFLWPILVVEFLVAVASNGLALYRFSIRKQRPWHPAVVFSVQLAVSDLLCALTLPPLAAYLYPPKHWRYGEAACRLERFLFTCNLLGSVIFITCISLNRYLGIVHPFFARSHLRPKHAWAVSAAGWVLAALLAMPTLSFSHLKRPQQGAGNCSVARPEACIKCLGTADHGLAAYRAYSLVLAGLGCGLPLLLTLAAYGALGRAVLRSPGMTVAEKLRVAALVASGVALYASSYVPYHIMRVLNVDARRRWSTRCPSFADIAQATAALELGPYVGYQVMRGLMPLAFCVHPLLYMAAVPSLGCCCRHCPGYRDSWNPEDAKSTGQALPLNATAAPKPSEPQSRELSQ
Kind of data set: [Ca^2+]i response of 1321N1 astrocytoma cells expressing P2Y11-R GFP. The class given is cell-based.

The target of data set [2] is T2, human NPP1 (Homo sapiens, UniProt P22413).
T2 construct: made in house; host or cells: COS-7 cells (transfected; protein extract / cell lysate)
T2 sequence (P22413 1-925): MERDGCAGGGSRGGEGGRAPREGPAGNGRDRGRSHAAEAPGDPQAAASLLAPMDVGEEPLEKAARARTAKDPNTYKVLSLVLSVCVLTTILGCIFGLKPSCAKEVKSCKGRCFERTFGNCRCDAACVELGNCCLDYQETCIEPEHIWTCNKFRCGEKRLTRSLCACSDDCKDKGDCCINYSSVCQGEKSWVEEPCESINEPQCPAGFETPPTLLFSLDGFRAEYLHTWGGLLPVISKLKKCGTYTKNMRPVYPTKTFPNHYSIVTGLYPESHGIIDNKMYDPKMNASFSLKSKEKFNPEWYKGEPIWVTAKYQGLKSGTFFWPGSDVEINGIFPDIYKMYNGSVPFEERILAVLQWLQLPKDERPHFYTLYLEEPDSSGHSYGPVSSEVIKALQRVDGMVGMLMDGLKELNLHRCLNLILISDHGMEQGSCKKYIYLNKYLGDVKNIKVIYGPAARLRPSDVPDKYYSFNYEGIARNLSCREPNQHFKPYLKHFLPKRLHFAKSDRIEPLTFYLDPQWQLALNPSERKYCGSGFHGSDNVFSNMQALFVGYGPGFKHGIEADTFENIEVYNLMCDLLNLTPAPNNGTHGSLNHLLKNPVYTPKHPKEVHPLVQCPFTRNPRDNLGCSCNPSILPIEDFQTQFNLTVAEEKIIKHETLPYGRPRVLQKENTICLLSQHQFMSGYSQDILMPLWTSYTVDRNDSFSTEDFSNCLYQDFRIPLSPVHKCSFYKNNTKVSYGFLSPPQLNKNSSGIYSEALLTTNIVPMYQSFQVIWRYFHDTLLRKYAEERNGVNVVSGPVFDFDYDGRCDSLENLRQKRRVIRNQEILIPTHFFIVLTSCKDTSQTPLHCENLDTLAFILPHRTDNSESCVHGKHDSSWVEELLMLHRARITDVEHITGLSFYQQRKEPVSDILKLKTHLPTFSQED
Kind of data set: Inhibition of NPP1 activity. Type of data set: biochemical. The following applies: for type of inhibition: Dixon and Cornish-Bowden methods; for inhibition of pnp-TMP hydrolysis by NPP1: analogue and pnp-TMP 100 μM.

Data set [3] addresses T3, human NTPDase2 (Homo sapiens, UniProt Q9Y5L3).
T3 construct: made in house; host or cells: COS-7 cells (transfected; protein extract)
T3 sequence (Q9Y5L3 1-495): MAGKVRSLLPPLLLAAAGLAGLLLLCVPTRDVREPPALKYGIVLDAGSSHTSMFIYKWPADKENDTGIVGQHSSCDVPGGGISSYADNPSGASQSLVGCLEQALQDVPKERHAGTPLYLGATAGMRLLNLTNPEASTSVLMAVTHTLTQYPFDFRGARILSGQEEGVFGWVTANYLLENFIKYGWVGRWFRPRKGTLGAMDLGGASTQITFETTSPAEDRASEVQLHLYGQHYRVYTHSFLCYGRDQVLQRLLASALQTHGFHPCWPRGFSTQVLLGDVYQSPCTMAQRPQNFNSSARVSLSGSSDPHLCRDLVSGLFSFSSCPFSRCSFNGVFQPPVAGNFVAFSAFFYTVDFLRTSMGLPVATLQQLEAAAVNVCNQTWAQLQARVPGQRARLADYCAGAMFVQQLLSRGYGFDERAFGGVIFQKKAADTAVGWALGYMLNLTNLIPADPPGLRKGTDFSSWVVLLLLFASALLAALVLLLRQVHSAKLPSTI
Kind of data set: Inhibition of NTPDase2 activity. Type of data set: biochemical. The following applies: for effect on human NTPDase2 activity: Table 5, ATP and analogue 100 μM, 100% activity = ATP alone; for inhibition of the hydrolysis of ATP by NTPDase2: analogue and ATP 100 μM.

The target of data set [4] is T4, human NTPDase3 (Homo sapiens, UniProt O75355).
T4 sequence (O75355 1-529): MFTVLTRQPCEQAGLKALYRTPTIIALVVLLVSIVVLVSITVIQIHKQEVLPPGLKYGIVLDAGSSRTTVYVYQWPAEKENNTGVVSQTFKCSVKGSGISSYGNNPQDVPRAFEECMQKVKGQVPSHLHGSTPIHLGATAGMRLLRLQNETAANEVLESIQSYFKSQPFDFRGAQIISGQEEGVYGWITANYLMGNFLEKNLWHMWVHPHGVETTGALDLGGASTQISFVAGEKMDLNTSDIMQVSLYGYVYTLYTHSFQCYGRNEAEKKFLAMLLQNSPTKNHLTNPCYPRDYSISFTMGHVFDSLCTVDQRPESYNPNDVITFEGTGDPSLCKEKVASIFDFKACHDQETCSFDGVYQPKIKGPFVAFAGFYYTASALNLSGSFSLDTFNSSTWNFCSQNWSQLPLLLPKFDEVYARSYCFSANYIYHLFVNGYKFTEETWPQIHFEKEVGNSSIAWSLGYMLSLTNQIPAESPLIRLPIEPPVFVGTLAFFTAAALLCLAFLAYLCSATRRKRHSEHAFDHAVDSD
The experiment in a line: Hydrolysis by human NTPDase3. The class given is in vitro ADME. On the set-up: made in house; host or cells: COS-7 cells (transfected; protein extract). The following applies: for Hydrolysis by NTPDase3: 100 μM, 1 h, activity with 100 μM ATP = 100%.

`Nc1ncnc2c1ncn2[C@@H]1O[C@H](COP(O)(=S)OP(=O)(O)C(Cl)(Cl)P(=O)(O)O)[C@@H](O)[C@H]1O` (single isomer, unassigned) [APPCCl2P-α-S, adenosine 5′-[Pα-thio]-β,γ-(dichloromethylene)triphosphate] registered an EC50 in data set [1] of more than 10000 nM. Besides, in data set [2], the IC50 was found to be 390 nM; the affinity, expressed as Ki, was 20 nM; the type of inhibition result is “mixed type inhibition, predominantly competitive”.
As to `Nc1ncnc2c1ncn2[C@@H]1O[C@H](COP(O)(=S)OP(=O)(O)C(Cl)(Cl)P(=O)(O)O)[C@@H](O)[C@H]1O` (single isomer, unassigned; isomer a) [APPCCl2P-α-S (isomer A), adenosine 5′-[Pα-thio]-β,γ-(dichloromethylene)triphosphate], the “agonism at the P2Y11-receptor” value in data set [1] is listed as “not an agonist”. In data set [2] (NPP1, text, read-out: IC50), the IC50 was found to be 600 nM. For the same compound, the Ki in data set [2] (NPP1, text, read-out: Ki) worked out at 685 nM. Besides, in data set [3] (listed as APPCCl2P-α-S A), the “effect on human NTPDase2 activity” value is recorded as 11.2 ± 0.5%. In data set [3], the “inhibition of the hydrolysis of ATP by NTPDase2” value (shortened to “inhibition … by NTPDase2”) is reported as “did not interfere”. Moreover, the “Hydrolysis by NTPDase3” value in data set [4] (listed as APPCCl2P-α-S A) turned out to be 5.2 ± 0.2%.
As for `Nc1ncnc2c1ncn2[C@@H]1O[C@H](COP(O)(=S)OP(=O)(O)CP(=O)(O)O)[C@@H](O)[C@H]1O` (single isomer, unassigned; isomer a) [APPCP-α-S (isomer A), adenosine 5′-[Pα-thio]-β,γ-methylenetriphosphate], the “agonism at the P2Y11-receptor” value in data set [1] was “not an agonist”. Besides, the Ki turned out to be 4500 ± 3 nM in data set [2] (dissociation constant for EIS complex, Cornish-Bowden plot, listed as APPCP-α-S A, read-out: Ki′) and 4500 ± 30 nM in data set [2] (pNP-TMP as substrate, Dixon plot, listed as APPCP-α-S A, read-out: Ki). For the same compound, in data set [3] (listed as APPCP-α-S A), the “effect on human NTPDase2 activity” value is 16.3 ± 0.6%. For the same compound, in data set [3], the “inhibition … by NTPDase2” value is on record as “did not interfere”. The “Hydrolysis by NTPDase3” value in data set [4] (listed as APPCP-α-S A) is given as 4.2%.
Take `Nc1ncnc2c1ncn2[C@@H]1O[C@H](COP(O)(=S)OP(=O)(O)C(Cl)(Cl)P(=O)(O)O)[C@@H](O)[C@H]1O` (single isomer, unassigned; isomer b) [APPCCl2P-α-S (isomer B), adenosine 5′-[Pα-thio]-β,γ-(dichloromethylene)triphosphate]: the “times more potent than ATP at the P2Y11 receptor” value (“times more potent than ATP” below) in data set [1] is on record as 2 fold. In addition, the Ki in data set [2] (pNP-TMP as substrate, Dixon plot, read-out: Ki) was 15200 ± 100 nM. Moreover, in data set [3] (listed as APPCCl2P-α-S B), the “effect on human NTPDase2 activity” value is reported as 12.7 ± 0.5%. For the same compound, the “inhibition … by NTPDase2” value in data set [3] is given as “did not interfere”. For the same compound, the “Hydrolysis by NTPDase3” value in data set [4] (listed as APPCCl2P-α-S B) was determined as 5.4%.
Take `Nc1ncnc2c1ncn2[C@@H]1O[C@H](COP(O)(=S)OP(=O)(O)CP(=O)(O)O)[C@@H](O)[C@H]1O` (single isomer, unassigned; isomer b) [APPCP-α-S (isomer B), adenosine 5′-[Pα-thio]-β,γ-methylenetriphosphate]: the “times more potent than ATP” value in data set [1] amounted to 7 fold. In data set [2] (pNP-TMP as substrate, Dixon plot, listed as APPCP-α-S B, read-out: Ki), the Ki stood at 1300 ± 10 nM. In data set [3] (listed as APPCP-α-S B), the “effect on human NTPDase2 activity” value came out at 9.9 ± 0.4%. For the same compound, the “inhibition … by NTPDase2” value in data set [3] is “did not interfere”. The “Hydrolysis by NTPDase3” value in data set [4] (listed as APPCP-α-S B) was found to be 4.8 ± 0.2%.
On to `Nc1ncnc2c1ncn2[C@@H]1O[C@H](COP(=O)(O)OP(O)(O)=S)[C@@H](O)[C@H]1O` [ADP-β-S, adenosine 5′-[β-thio]diphosphate, reference compound], for which the “inhibition of pnp-TMP hydrolysis by NPP1” value in data set [2] is reported as 95%. The “inhibition … by NTPDase2” value in data set [3] is listed as “less than 50%”. Also, the “Relative hydrolysis by NTPDase3” value in data set [4] is 2 ± 0.1 % ± SD of ADP or AP2A hydrolysis.
Regarding `Nc1ncnc2c1ncn2[C@@H]1O[C@H](COP(=O)(O)CP(=O)(O)OP(O)(O)=S)[C@@H](O)[C@H]1O` [APCPP-γ-S, adenosine 5′-[Pγ-thio]-α,β-methylenetriphosphate], in data set [1], the EC50 was more than 10000 nM and the “times more potent than ATP” value is on record as 6.7 fold. Moreover, the EC50 in data set [1] (agonist, read-out: EC50 at the P2Y11 receptor) was 1000 nM. Further, in data set [2], the Ki was less than 9000 nM and the type of inhibition result is “mixed type inhibition, predominantly competitive”. In addition, the Ki in data set [2] (NPP1, text, read-out: Ki) turned out to be 20 nM. In addition, the “effect on human NTPDase2 activity” value in data set [3] was 15.4 ± 0.7%. Besides, the “Hydrolysis by NTPDase3” value in data set [4] amounted to 4.8 ± 0.2%.
On to adenosine-5′-tetrathiobisphosphonate, for which the “inhibition of pnp-TMP hydrolysis by NPP1” value in data set [2] was 4%. In addition, in data set [3], the “inhibition … by NTPDase2” value is recorded as 42%.
Consider “di-adenosine-5′,5″-tetrathiobisphosphonate”, for which, in data set [2], the “inhibition of pnp-TMP hydrolysis by NPP1” value is approximately 60%. The “inhibition … by NTPDase2” value in data set [3] is recorded as 5-20%. Further, in data set [4], the “Relative hydrolysis by NTPDase3” value is listed as 2.0 ± 0.1 % ± SD of ADP or AP2A hydrolysis.
